Data on three molecules can be found in ChEMBL document CHEMBL4270542, “Synthesis and study of benzofuran-pyran analogs as BMP-2 targeted osteogenic agents” (Eur J Med Chem, 2018).

The source made the active and inactive calls. The rule behind the calls is not given here.

The subject of series [1] is Rattus norvegicus. The experiment in a line: In vivo induction of osteogenesis in rat assessed as increase in COL1 mRNA expression at 10 mg/kg, sc administered daily for 5 days by qRT-PCR analysis. It is filed as functional, organism-based. In general terms: In qPCR the cycle at which signal appears reflects the starting amount.
For series [2], the system named is Rattus norvegicus. In words: In vivo induction of osteogenesis in rat assessed as increase in BMP2 mRNA expression at 2.5 mg/kg, sc administered daily for 5 days by qRT-PCR analysis. The series is classed as functional, organism-based.
Series [3] concerns Calvarial osteoblast. The experiment in a line: Induction of osteoblast differentiation in rat calvarial osteoblast assessed as increase in COL1 mRNA expression at 1 pM after 48 hrs by SYBR green dye based qRT-PCR analysis. The series is classed as functional, cell-based.
The test system of series [4] is Calvarial osteoblast. The experiment in a line: Induction of mineralization in rat calvarial osteoblast at 1 pM supplemented with fresh medium containing compounds every 48 hrs for 21 days by alizarin red-S staining based assay. It is filed as functional, cell-based.
In series [5] the test system is Calvarial osteoblast. The experiment in a line: Induction of osteoblast differentiation in rat calvarial osteoblast assessed as increase in Runx2 mRNA expression at 1 pM after 48 hrs by SYBR green dye based qRT-PCR analysis relative to control. It is filed as functional.
Series [6] has as its system Rattus norvegicus. The experiment in a line: In vivo induction of osteogenesis in rat assessed as increase in BMP2 mRNA expression at 10 mg/kg, sc administered daily for 5 days by qRT-PCR analysis. The series is classed as functional, organism-based.
Series [7] concerns Rattus norvegicus. The experiment in a line: In vivo induction of osteogenesis in rat assessed as increase in COL1 mRNA expression at 2.5 mg/kg, sc administered daily for 5 days by qRT-PCR analysis. It is filed as functional, organism-based.
Series [8] concerns Calvarial osteoblast. The experiment in a line: Induction of osteoblast differentiation in rat calvarial osteoblast assessed as increase in BMP2 mRNA expression at 1 to 100 pM after 48 hrs by SYBR green dye based qRT-PCR analysis relative to control. The series is classed as functional.
Series [9] relates to Calvarial osteoblast. In words: Induction of osteoblast differentiation in rat calvarial osteoblast assessed as increase in ALP activity using PNPP as substrate measured after 48 hrs. The note with it: for EC50: Rattus norvegicus, Calvarial osteoblast, 48 h. The series is classed as functional, cell-based.
Series [10] has as its system Rattus norvegicus. In words: In vivo induction of osteogenesis in rat assessed as increase in OCN mRNA expression at 10 mg/kg, sc administered daily for 5 days by qRT-PCR analysis. It is filed as functional, organism-based.
Series [11] has as its system Rattus norvegicus. The experiment in a line: In vivo induction of osteogenesis in rat assessed as increase in OCN mRNA expression at 5 mg/kg, sc administered daily for 5 days by qRT-PCR analysis. The series is classed as functional, organism-based.
Series [12] has as its system Calvarial osteoblast. The experiment in a line: Cytotoxicity against rat calvarial osteoblast assessed as effect on cell viability at 0.000001 to 100 uM after 48 hrs by MTT assay. The series is classed as cell-based.
Series [13] has as its system Calvarial osteoblast. In words: Induction of osteoblast differentiation in rat calvarial osteoblast assessed as increase in BMP2 mRNA expression at 0.01 to 1 uM after 48 hrs by SYBR green dye based qRT-PCR analysis relative to control. The series is classed as functional.
The subject of series [14] is Calvarial osteoblast. In words: Induction of mineralization in rat calvarial osteoblast at 1 uM supplemented with fresh medium containing compounds every 48 hrs for 21 days by alizarin red-S staining based assay. The series is classed as functional, cell-based.
For series [15], the system named is Calvarial osteoblast. The experiment in a line: Induction of mineralization in rat calvarial osteoblast at 10 nM supplemented with fresh medium containing compounds every 48 hrs for 21 days by alizarin red-S staining based assay. The series is classed as functional, cell-based.
The subject of series [16] is Calvarial osteoblast. The experiment in a line: Induction of osteoblast differentiation in rat calvarial osteoblast assessed as increase in BMP2 mRNA expression at 0.1 to 10 nM after 48 hrs by SYBR green dye based qRT-PCR analysis relative to control. The series is classed as functional.

The term EC50 denotes the concentration at which the effect is half-maximal.

Take `Cc1cc(C2C3=C(CCCC3=O)OC3=C2C(=O)CCC3)cc2cc(C(=O)c3ccc(F)cc3)oc12`: the result with Rattus norvegicus [1], in the series with Rattus norvegicus [2], in the series on Calvarial osteoblast [3], in the series with Calvarial osteoblast [4], with Rattus norvegicus [6] and in the series with Rattus norvegicus [7] was Active. Also, the outcome in the series on Rattus norvegicus [10] and in the series with Rattus norvegicus [11] was Active. Further, the “fold change (FC)” value in the series with Calvarial osteoblast [5] is 2; in the series on Calvarial osteoblast [8], 2.5. Moreover, in the series on Calvarial osteoblast [9], the “concentration of maximal effect” value was found to be 1 pM. Besides, the half-maximal effective concentration (EC50) with Calvarial osteoblast [9] is 0.000822 nM. Moreover, in the series with Calvarial osteoblast [12], the Activity entry is recorded as “Non-Toxic”.
For the molecule `CCc1cc(C2C3=C(CC(C)(C)CC3=O)OC3=C2C(=O)CC(C)(C)C3)cc2cc(C(=O)c3ccc(F)cc3)oc12`, in the series on Calvarial osteoblast [13], the “fold change (FC)” value is 2. Also, in the series with Calvarial osteoblast [9], the “concentration of maximal effect” value came to 1e+07 pM and the concentration for a half-maximal effect (EC50) was 7960 nM. In addition, the result with Calvarial osteoblast [14] was Active. Besides, the Activity result with Calvarial osteoblast [12] was “Non-Toxic”.
Turning to `CCc1cc(C2C3=C(CCCC3=O)OC3=C2C(=O)CCC3)cc2cc(C(=O)c3ccc(F)cc3)oc12`, in the series with Calvarial osteoblast [15], the result was Active. Also, the “fold change (FC)” value in the series with Calvarial osteoblast [16] amounted to 2. In addition, in the series with Calvarial osteoblast [9], the “concentration of maximal effect” value is 10000 pM and the EC50 stood at 7.59 nM. Also, the Activity entry with Calvarial osteoblast [12] was “Non-Toxic”.
